Test results reported in PubChem BioAssay AID1919009 (Molecular Pharmacology Branch, DTP, NCI, 2023).

System: K24384-001-R-PDC complex spheroid growth
Test: Anticancer human tumor K24384-001-R-PDC patient-derived pancreatic adenocarcinoma cell line growth inhibition [AhR]
Settings: for IC50: curve of first compound; for viability, T/C: stronger effect = lower value; active means viability on the fitted dose curve at most 10% of control; inactive means the rest
Outline: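 Spheroids combined tumor cells with HUVEC endothelial cells and human MSCs as stroma. AhR antagonists were paired with standard or investigational drugs, each dosed in half-log steps down from near clinical Cmax, or from 10 microM where Cmax was unknown.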
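Wherever viability, T/C is given: percent of DMSO vehicle-treated spheroid viability set as 100%.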

CC1(C)CCC(CN2CCN(c3ccc(C(=O)NS(=O)(=O)c4ccc(NCC5CCOCC5)c([N+](=O)[O-])c4)c(Oc4cnc5[nH]ccc5c4)c3)CC2)=C(c2ccc(Cl)cc2)C1 + Cc1ccccc1N=Nc1ccc(NC(=O)c2ccnn2C)c(C)c1
inactive: viability, T/C (second compound 0.1 µM, first compound 0.0316 µM) 111% | viability, T/C (second compound 0.1 µM, first compound 0.1 µM) 119% | viability, T/C (second compound 0.1 µM, first compound 0.316 µM) 113% | viability, T/C (second compound 0.1 µM, first compound 1 µM) 102% | viability, T/C (second compound 0.1 µM, first compound 3.16 µM) 86.5% | viability, T/C (second compound 0.1 µM, first compound 10 µM) 52.3% | viability, T/C (second compound 0.316 µM, first compound 0.0316 µM) 123% | viability, T/C (second compound 0.316 µM, first compound 0.1 µM) 112% | viability, T/C (second compound 0.316 µM, first compound 0.316 µM) 132% | viability, T/C (second compound 0.316 µM, first compound 1 µM) 114% | viability, T/C (second compound 0.316 µM, first compound 3.16 µM) 118% | viability, T/C (second compound 0.316 µM, first compound 10 µM) 51.7% | viability, T/C (second compound 1 µM, first compound 0.0316 µM) 108% | viability, T/C (second compound 1 µM, first compound 0.1 µM) 102% | viability, T/C (second compound 1 µM, first compound 0.316 µM) 122% | viability, T/C (second compound 1 µM, first compound 1 µM) 112% | viability, T/C (second compound 1 µM, first compound 3.16 µM) 114% | viability, T/C (second compound 1 µM, first compound 10 µM) 48.1% | viability, T/C (second compound 3.16 µM, first compound 0.0316 µM) 111% | viability, T/C (second compound 3.16 µM, first compound 0.1 µM) 107% | viability, T/C (second compound 3.16 µM, first compound 0.316 µM) 114% | viability, T/C (second compound 3.16 µM, first compound 1 µM) 112% | viability, T/C (second compound 3.16 µM, first compound 3.16 µM) 112% | viability, T/C (second compound 3.16 µM, first compound 10 µM) 48.5% | viability, T/C (second compound 10 µM, first compound 0.0316 µM) 116% | viability, T/C (second compound 10 µM, first compound 0.1 µM) 147% | viability, T/C (second compound 10 µM, first compound 0.316 µM) 131% | viability, T/C (second compound 10 µM, first compound 1 µM) 129% | viability, T/C (second compound 10 µM, first compound 3.16 µM) 111% | viability, T/C (second compound 10 µM, first compound 10 µM) 57.8%
9.75 µM: IC50 (second compound 3.16 µM)
> 10 µM: IC50 (second compound 0.1 µM) | IC50 (second compound 0.316 µM) | IC50 (second compound 10 µM)
9.66 µM: IC50 (second compound 1 µM)

CCN(c1cc(-c2ccc(CN3CCOCC3)cc2)cc(C(=O)NCc2c(C)cc(C)[nH]c2=O)c1C)C1CCOCC1 + Cc1ccccc1N=Nc1ccc(NC(=O)c2ccnn2C)c(C)c1
inactive: viability, T/C (second compound 0.1 µM, first compound 0.00949 µM) 116% | viability, T/C (second compound 0.1 µM, first compound 0.03 µM) 114% | viability, T/C (second compound 0.1 µM, first compound 0.0949 µM) 124% | viability, T/C (second compound 0.1 µM, first compound 0.3 µM) 113% | viability, T/C (second compound 0.1 µM, first compound 0.949 µM) 80% | viability, T/C (second compound 0.1 µM, first compound 3 µM) 125% | viability, T/C (second compound 0.316 µM, first compound 0.00949 µM) 131% | viability, T/C (second compound 0.316 µM, first compound 0.03 µM) 126% | viability, T/C (second compound 0.316 µM, first compound 0.0949 µM) 135% | viability, T/C (second compound 0.316 µM, first compound 0.3 µM) 112% | viability, T/C (second compound 0.316 µM, first compound 0.949 µM) 106% | viability, T/C (second compound 0.316 µM, first compound 3 µM) 91.2% | viability, T/C (second compound 1 µM, first compound 0.00949 µM) 119% | viability, T/C (second compound 1 µM, first compound 0.03 µM) 134% | viability, T/C (second compound 1 µM, first compound 0.0949 µM) 131% | viability, T/C (second compound 1 µM, first compound 0.3 µM) 106% | viability, T/C (second compound 1 µM, first compound 0.949 µM) 87.3% | viability, T/C (second compound 1 µM, first compound 3 µM) 87.8% | viability, T/C (second compound 3.16 µM, first compound 0.00949 µM) 109% | viability, T/C (second compound 3.16 µM, first compound 0.03 µM) 117% | viability, T/C (second compound 3.16 µM, first compound 0.0949 µM) 116% | viability, T/C (second compound 3.16 µM, first compound 0.3 µM) 107% | viability, T/C (second compound 3.16 µM, first compound 0.949 µM) 130% | viability, T/C (second compound 3.16 µM, first compound 3 µM) 105% | viability, T/C (second compound 10 µM, first compound 0.00949 µM) 141% | viability, T/C (second compound 10 µM, first compound 0.03 µM) 138% | viability, T/C (second compound 10 µM, first compound 0.0949 µM) 147% | viability, T/C (second compound 10 µM, first compound 0.3 µM) 137% | viability, T/C (second compound 10 µM, first compound 0.949 µM) 128% | viability, T/C (second compound 10 µM, first compound 3 µM) 110%
> 3 µM: IC50 (second compound 0.1 µM) | IC50 (second compound 0.316 µM) | IC50 (second compound 1 µM) | IC50 (second compound 3.16 µM) | IC50 (second compound 10 µM)
